Source: patent US4701465A, “N-acylpyrrolidine derivative and synthesis and use thereof” (Suntory Limited, priority 1985, dated 1987)
Blank lines part the entries; values can stand above or below the compound they belong to.

Key:
prolyl endopeptidase = prolyl endopeptidase (Elizabethkingia meningoseptica, UniProt P27028); test: Measurement of anti-prolyl endopeptidase activity; assay type: biochemical; conditions: substrate Z-glycyl-proline-β-naphthylamide, 0.1M phosphate buffer pH 7.06, absorbance at 410 nm
Experimental: The method of Yoshimoto and Tsuru (T. Yoshimoto and D. Tsuru, Agr. Biol. Chem. 42, 2417, 1978) was used to measure the anti-prolyl endopeptidase activities of compounds of the present invention. A mixture of 0.0025M Z-glycyl-proline-β-naphthylamide (0.25 ml), 0.1M phosphate buffer (pH, 7.06; 0.99 ml) and a solution of a particular anti-prolyl endopeptidase compound (0.01 ml) was incubated in a test tube at 37° C. for 3 minutes. Thereafter, 0.1 ml of a solution of prolyl endopeptidase (0.2 U/ml) was added and the mixture was heated at 35° C. for 10 minutes. After the reaction, 2.0 ml of Triton X-100 in 1M acetate buffer (pH, 4.0) was added to the reaction mixture until the final concentration of the surfactant was 10%. The mixture was left at room temperature for 15 minutes and the absorbance (a) at 410 nm was measured.
A sample for a blind test was prepared by using the buffer instead of the anti-prolyl endopeptidase compound and its absorbance (b) was also measured. The percent inhibition of prolyl endopeptidase was calculated by the formula: ((b-a)/b)×100, and the amount of a specific compound to achieve 50% inhibition IC50) was determined.

[1] = test system: experimental amnesia caused in rats by scopolamine; test: Preventive effect against experimental amnesia caused in rats by scopolamine (passive avoidance learning, intraperitoneal administration); assay type: in vivo, Wister male rats; conditions: 1 mg/kg i.p.; for No. of amnesic rats/No. of rats tested / percentage amnesia / Avoidance time 24 hrs. later / Avoidance time 48 hrs. later: scopolamine 3 mg/kg i.p. after learning; for preventive effect against scopolamine amnesia (in words): rats
Experimental: Several of the anti-prolyl endopeptidase compounds of the present invention were checked for their ability to prevent the inhibition of long-term memory fixation by scopolamine. Solutions of physiological saline that contained selected compounds of the present inventions in an amount of 1 mg/kg were administered intraperitoneally to Wister male rats (100-120 g). One hour after the administration, electric shocks were applied to the rats so that they would acquire passive avoidance learning. Immediately thereafter, scopolamine was administered intraperitoneally to each rat in an amount of 3 mg per kg of body weight.
The result of the test was assessed both 24 hours and 48 hours after the administration of scopolamine. The number of amnesic rats and of sound rats was counted for both the control group (rats which were not given the test compounds but to which scopolamine and physiological saline alone were administered intraperitoneally) and the treated group (rats to which both the test compound and scopolamine were administered).

Chain of prolyl endopeptidase (P27028 21-705): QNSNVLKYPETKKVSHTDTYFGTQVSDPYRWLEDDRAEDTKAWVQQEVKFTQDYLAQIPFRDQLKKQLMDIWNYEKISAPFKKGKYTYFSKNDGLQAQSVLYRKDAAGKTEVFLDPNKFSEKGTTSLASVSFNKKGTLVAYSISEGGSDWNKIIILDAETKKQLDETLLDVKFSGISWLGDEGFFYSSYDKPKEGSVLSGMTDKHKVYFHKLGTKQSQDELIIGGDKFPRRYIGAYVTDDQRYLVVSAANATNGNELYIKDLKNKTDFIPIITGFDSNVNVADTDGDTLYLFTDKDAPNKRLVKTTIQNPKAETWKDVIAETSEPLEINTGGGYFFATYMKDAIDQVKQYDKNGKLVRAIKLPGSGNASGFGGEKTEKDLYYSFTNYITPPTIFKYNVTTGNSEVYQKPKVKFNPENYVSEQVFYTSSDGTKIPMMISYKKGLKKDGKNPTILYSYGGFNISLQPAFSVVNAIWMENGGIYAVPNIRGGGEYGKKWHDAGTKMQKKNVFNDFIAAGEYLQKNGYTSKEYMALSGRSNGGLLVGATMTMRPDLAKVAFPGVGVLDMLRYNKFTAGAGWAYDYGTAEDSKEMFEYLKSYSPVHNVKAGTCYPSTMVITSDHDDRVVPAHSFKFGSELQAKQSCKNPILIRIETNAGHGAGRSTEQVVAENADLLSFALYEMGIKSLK

Structure (SMILES): CC(C)C(CCc1ccccc1)C(=O)N1CCCC1C=O (centres unmarked) [compound 33]
- IC50 (amount of compound to achieve 50% inhibition of prolyl endopeptidase) (prolyl endopeptidase): > 5 μg/test tube

Structure (SMILES): O=CC1CCCN1C(=O)CCc1ccc(Cl)cc1 (centres unmarked) [compound 17]
- IC50 (amount of compound to achieve 50% inhibition of prolyl endopeptidase) (prolyl endopeptidase): 1.0 μg/test tube

Structure (SMILES): COc1ccc(CCC(=O)N2CCCC2C=O)cc1 (centres unmarked) [SUAM1050]
- No. of amnesic rats/No. of rats tested [1]: 5/10
- percentage amnesia [1]: 50%
- Avoidance time 24 hrs. later [1]: 198.2 s
- Avoidance time 48 hrs. later [1]: 203.5 s

Structure (SMILES): COc1ccc(CC(=O)N2CCCC2C=O)cc1 (centres unmarked) [compound 7]
- IC50 (amount of compound to achieve 50% inhibition of prolyl endopeptidase) (prolyl endopeptidase): 3.0 μg/test tube

Structure (SMILES): COc1ccc(/C=C/C(=O)N2CCCC2C=O)cc1 (centres unmarked) [compound 39]
- IC50 (amount of compound to achieve 50% inhibition of prolyl endopeptidase) (prolyl endopeptidase): 0.2 μg/test tube

Structure (SMILES): O=CC1CCCN1C(=O)Cc1ccc(Cl)cc1 (centres unmarked) [SUAM1052]
- No. of amnesic rats/No. of rats tested [1]: 3/10
- percentage amnesia [1]: 30%
- Avoidance time 24 hrs. later [1]: 223.1 s
- Avoidance time 48 hrs. later [1]: 214.8 s

Structure (SMILES): COc1ccc(CCCC(=O)N2CCCC2C=O)cc1 (centres unmarked) [compound 9]
- IC50 (amount of compound to achieve 50% inhibition of prolyl endopeptidase) (prolyl endopeptidase): 0.05 μg/test tube

Structure (SMILES): COc1ccc(CCCC(=O)N2CCCC2C=O)cc1 (centres unmarked) [SUAM1051]
- preventive effect against scopolamine amnesia (in words) [1]: particularly remarkable effects
- No. of amnesic rats/No. of rats tested [1]: 0/10
- percentage amnesia [1]: 0%
- Avoidance time 24 hrs. later [1]: 300.0 s
- Avoidance time 48 hrs. later [1]: 300.0 s

Structure (SMILES): O=CC1CCCN1C(=O)CCC(=O)c1ccccc1 (centres unmarked) [SUAM1055]
- preventive effect against scopolamine amnesia (in words) [1]: particularly remarkable effects
- No. of amnesic rats/No. of rats tested [1]: 0/10
- percentage amnesia [1]: 0%
- Avoidance time 24 hrs. later [1]: 300.0 s
- Avoidance time 48 hrs. later [1]: 300.0 s

Structure (SMILES): O=CC1CCCN1C(=O)CC(c1ccccc1)c1ccccc1 (centres unmarked) [SUAM1065]
- preventive effect against scopolamine amnesia (in words) [1]: particularly remarkable effects
- No. of amnesic rats/No. of rats tested [1]: 1/10
- percentage amnesia [1]: 10%
- Avoidance time 24 hrs. later [1]: 284.6 s
- Avoidance time 48 hrs. later [1]: 267.2 s

Structure (SMILES): O=CC1CCCN1C(=O)CCCc1ccc(Cl)cc1 (centres unmarked) [compound 18]
- IC50 (amount of compound to achieve 50% inhibition of prolyl endopeptidase) (prolyl endopeptidase): 1.5 μg/test tube

Structure (SMILES): COc1ccc(/C=C/C(=O)N2CCCC2C=O)cc1 (centres unmarked) [SUAM1054]
- No. of amnesic rats/No. of rats tested [1]: 5/10
- percentage amnesia [1]: 50%
- Avoidance time 24 hrs. later [1]: 204.5 s
- Avoidance time 48 hrs. later [1]: 199.7 s

Structure (SMILES): O=CC1CCCN1C(=O)CCC(c1ccccc1)c1ccccc1 (centres unmarked) [SUAM1090]
- No. of amnesic rats/No. of rats tested [1]: 4/10
- percentage amnesia [1]: 40%
- Avoidance time 24 hrs. later [1]: 232.8 s
- Avoidance time 48 hrs. later [1]: 202.36 s

Structure (SMILES): COc1ccc(CCC(=O)N2CCCC2C=O)cc1 (centres unmarked) [compound 8]
- IC50 (amount of compound to achieve 50% inhibition of prolyl endopeptidase) (prolyl endopeptidase): 1.0 μg/test tube

Structure (SMILES): O=CC1CCCN1C(=O)Cc1ccc(Cl)cc1 (centres unmarked) [compound 16]
- IC50 (amount of compound to achieve 50% inhibition of prolyl endopeptidase) (prolyl endopeptidase): 0.5 μg/test tube

Structure (SMILES): CCC(C(=O)N1CCCC1C=O)c1ccccc1 (centres unmarked) [SUAM1066]
- No. of amnesic rats/No. of rats tested [1]: 3/10
- percentage amnesia [1]: 30%
- Avoidance time 24 hrs. later [1]: 268.4 s
- Avoidance time 48 hrs. later [1]: 205.4 s

Continued, values first:

- IC50 (amount of compound to achieve 50% inhibition of prolyl endopeptidase) (prolyl endopeptidase): 0.1 μg/test tube
Structure (SMILES): O=CC1CCCN1C(=O)CCC(=O)c1ccccc1 (centres unmarked) [compound 30]

- IC50 (amount of compound to achieve 50% inhibition of prolyl endopeptidase) (prolyl endopeptidase): 1.0 μg/test tube
Structure (SMILES): CC(CCc1ccccc1)C(=O)N1CCCC1C=O (centres unmarked) [compound 36]

- IC50 (amount of compound to achieve 50% inhibition of prolyl endopeptidase) (prolyl endopeptidase): 0.2 μg/test tube
Structure (SMILES): CCC(C(=O)N1CCCC1C=O)c1ccccc1 (centres unmarked) [compound 27]

- IC50 (amount of compound to achieve 50% inhibition of prolyl endopeptidase) (prolyl endopeptidase): 30 μg/test tube
Structure (SMILES): COC(=O)C1CCCN1C(=O)CCc1ccc(Cl)cc1 (centres unmarked) [compound 11]

- IC50 (amount of compound to achieve 50% inhibition of prolyl endopeptidase) (prolyl endopeptidase): 80 μg/test tube
Structure (SMILES): COC(=O)C1CCCN1C(=O)/C=C/c1ccc(OC)cc1 (centres unmarked) [compound 37]

- IC50 (amount of compound to achieve 50% inhibition of prolyl endopeptidase) (prolyl endopeptidase): 200 μg/test tube
Structure (SMILES): COC(=O)C1CCCN1C(=O)CCC(=O)c1ccccc1 (centres unmarked) [compound 28]

- IC50 (amount of compound to achieve 50% inhibition of prolyl endopeptidase) (prolyl endopeptidase): 180 μg/test tube
Structure (SMILES): COC(=O)C1CCCN1C(=O)CCCc1ccc(OC)cc1 (centres unmarked) [compound 3]

- IC50 (amount of compound to achieve 50% inhibition of prolyl endopeptidase) (prolyl endopeptidase): 80 μg/test tube
Structure (SMILES): COC(=O)C1CCCN1C(=O)Cc1ccc(OC)cc1 (centres unmarked) [Compound No. 1]

- IC50 (amount of compound to achieve 50% inhibition of prolyl endopeptidase) (prolyl endopeptidase): 250 μg/test tube
Structure (SMILES): COC(=O)C1CCCN1C(=O)CC(c1ccccc1)c1ccccc1 (centres unmarked) [compound 22]

- IC50 (amount of compound to achieve 50% inhibition of prolyl endopeptidase) (prolyl endopeptidase): 72 μg/test tube
Structure (SMILES): COC(=O)C1CCCN1C(=O)Cc1ccc(Cl)cc1 (centres unmarked) [compound 10]

- IC50 (amount of compound to achieve 50% inhibition of prolyl endopeptidase) (prolyl endopeptidase): 50 μg/test tube
Structure (SMILES): COC(=O)C1CCCN1C(=O)CCCc1ccc(Cl)cc1 (centres unmarked) [compound 12]

- IC50 (amount of compound to achieve 50% inhibition of prolyl endopeptidase) (prolyl endopeptidase): 60 μg/test tube
Structure (SMILES): COC(=O)[C@@H]1CCCN1C(=O)CCOc1ccccc1 [Compound No. 19, N-(3-phenoxy)propionyl-proline methyl ester]

- IC50 (amount of compound to achieve 50% inhibition of prolyl endopeptidase) (prolyl endopeptidase): > 200 μg/test tube
Structure (SMILES): COC(=O)C1CCCN1C(=O)C(CCc1ccccc1)C(C)C (centres unmarked) [compound 31]

- IC50 (amount of compound to achieve 50% inhibition of prolyl endopeptidase) (prolyl endopeptidase): 0.1 μg/test tube
Structure (SMILES): O=CC1CCCN1C(=O)CC(c1ccccc1)c1ccccc1 (centres unmarked) [compound 24]

- IC50 (amount of compound to achieve 50% inhibition of prolyl endopeptidase) (prolyl endopeptidase): 2.5 μg/test tube
Structure (SMILES): O=CC1CCCN1C(=O)CCOc1ccccc1 (centres unmarked) [Compound No. 21, N-(3-phenoxy)propionyl-prolinal]

- IC50 (amount of compound to achieve 50% inhibition of prolyl endopeptidase) (prolyl endopeptidase): 51 μg/test tube
Structure (SMILES): COC(=O)C1CCCN1C(=O)CCc1ccc(OC)cc1 (centres unmarked) [Compound No. 2]

- IC50 (amount of compound to achieve 50% inhibition of prolyl endopeptidase) (prolyl endopeptidase): 0.35 μg/test tube
Structure (SMILES): O=CC1CCCN1C(=O)CCC(c1ccccc1)c1ccccc1 (centres unmarked) [compound 42]

- IC50 (amount of compound to achieve 50% inhibition of prolyl endopeptidase) (prolyl endopeptidase): 80 μg/test tube
Structure (SMILES): COC(=O)C1CCCN1C(=O)C(C)CCc1ccccc1 (centres unmarked) [compound 34]

- IC50 (amount of compound to achieve 50% inhibition of prolyl endopeptidase) (prolyl endopeptidase): 510 μg/test tube
Structure (SMILES): CCC(C(=O)N1CCCC1C(=O)OC)c1ccccc1 (centres unmarked) [compound 25]
